# Experimental data published in US20120015907A1, “Furopyridine compounds and uses thereof” (NOVARTIS AG, priority 2010, published 2012).
# Target: T1, HCV polymerase (Hepatitis C virus genotype 1b, UniProt Q9WMX2)
# T1 construct: (His)6 (C)
# Test: biochemical
# Conditions: NS5B polymerase IC50 μM, polymerase assay of Biological Example 1
row,Compound,IC50 [µM]
1,"CCOP(C)(=O)CCCCN(c1nc2oc(-c3ccc(C)cc3)c(C(=O)NC)c2cc1I)S(C)(=O)=O (stereo not drawn) [Example 23.9995, ethyl 4-(N-(5-iodo-3-(methylcarbamoyl)-2-p-tolylfuro[2,3-b]pyridin-6-yl)methylsulfonamido)butyl (methyl)phosphinate]",0.017
2,"CCOP(C)(=O)CCCCCN(c1nc2oc(-c3ccc(C)cc3)c(C(=O)NC)c2cc1C1CC1)S(C)(=O)=O (stereo not drawn) [Example 23.99995, ethyl 5-(N-(5-cyclopropyl-3-(methylcarbamoyl)-2-p-tolylfuro[2,3-b]pyridin-6-yl)methylsulfonamido)pentyl (methyl)phosphinate]",0.009

# Same assay, conditions: polymerase assay of Biological Example 1; read-out: NS5B polymerase IC50
row,Compound,IC50 [µM]
1,"CCc1ccc(-c2oc3nc(N(CCCC4(C(=O)O)CCC4)S(C)(=O)=O)c(C4CC4)cc3c2C(=O)NC)cc1 [Example 29.91, 1-(3-(N-(5-cyclopropyl-2-(4-ethylphenyl)-3-(methylcarbamoyl)furo[2,3-b]pyridin-6-yl)methylsulfonamido)propyl) cyclobutanecarboxylic acid]",0.002
2,"CNC(=O)c1c(-c2ccc(C(F)(F)F)cc2)oc2nc(N(C)S(C)(=O)=O)c(I)cc12 [Example 2.91, 5-iodo-N-methyl-6-(N-methylmethylsulfonamide)-2-(4-(trifluoromethyl)phenyl)furo[2,3-b]pyridine-3-carboxamide]",0.802
3,"6-{[3-(1,1-Dioxo-tetrahydro-1lambdathiophen-2-yl)-propyl]-methanesulfonyl-amino}-5-ethyl-2-(4-fluoro-phenyl)-furo[2,3-b]pyridine-3-carboxylic acid methylamide [Example 22.99]",0.015
4,"CNC(=O)c1c(-c2ccc(C)cc2)oc2nc(N(CC(O)CCC(=O)O)S(C)(=O)=O)c(C3CC3)cc12 (stereo not drawn) [Example 29.995, 5-(N-(5-cyclopropyl-3-(methylcarbamoyl)-2-p-tolylfuro[2,3-b]pyridin-6-yl)methylsulfonamido)-4-hydroxypentanoic acid]",0.013
5,"C=C1OCCN(S(C)(=O)=O)c2nc3oc(-c4ccc(F)cc4)c(C(=O)NC)c3cc21 [Example 36.1, 2-(4-Fluoro-phenyl)-9-methanesulfonyl-5-methylene-5,7,8,9-tetrahydro-1,6-dioxa-9,10-diaza-cyclohepta[f]indene-3-carboxylic acid methylamide]",0.046
6,"CNC(=O)c1c(-c2ccc(C)cc2)oc2nc(N(CCCNS(=O)(=O)C(F)(F)F)S(C)(=O)=O)c(C3CC3)cc12 [Example 23.999992, 5-cyclopropyl-N-methyl-2-p-tolyl-6-(N-(3-(trifluoromethylsulfonamido)propyl)methylsulfonamido) furo[2,3-b]pyridine-3-carboxamide]",0.002
7,"CNC(=O)c1c(-c2ccc(C)cc2)oc2nc(N(CCOCC(C)(C)C(=O)O)S(C)(=O)=O)c(C3CC3)cc12 [Example 41, 3-(2-(N-(5-cyclopropyl-3-(methylcarbamoyl)-2-p-tolylfuro[2,3-b]pyridin-6-yl)methylsulfonamido)ethoxy)-2,2-dimethylpropanoic acid]",0.003
8,"CNC(=O)c1c(-c2ccc(C)cc2)oc2nc(N(CCCC3(CC(=O)O)CCOCC3)S(C)(=O)=O)c(C3CC3)cc12 [Example 48, 2-(4-(3-(N-(5-cyclopropyl-3-(methylcarbamoyl)-2-p-tolylfuro[2,3-b]pyridin-6-yl)methylsulfonamido)propyl)tetrahydro-2H-pyran-4-yl)acetic acid]",0.008
9,"CNC(=O)c1c(-c2ccc(C)cc2)oc2nc(N(CCCc3nn[nH]n3)S(C)(=O)=O)c(C3CC3)cc12 [Example 29.92, 6-(N-(3-(2H-tetrazol-5-yl)propyl)methylsulfonamido)-5-cyclopropyl-N-methyl-2-p-tolylfuro[2,3-b]pyridine-3-carboxamide]",0.002
10,"CCc1cc2c(C(=O)NC)c(-c3ccc(Oc4ccccc4)cc3)oc2nc1N(C)S(C)(=O)=O [Example 17, 5-ethyl-N-methyl-6-(N-methylmethylsulfonamido)-2-(4-phenoxyphenyl)furo[2,3-b]pyridine-3-carboxamide]",0.128
11,"CNC(=O)c1c(-c2ccc(C)cc2)oc2nc(N(CCCC(C)(OC)C(=O)O)S(C)(=O)=O)c(C3CC3)cc12 (stereo not drawn) [Example 29.9992, 5-(N-(5-cyclopropyl-3-(methylcarbamoyl)-2-p-tolylfuro[2,3-b]pyridin-6-yl)methylsulfonamido)-2-methoxy-2-methylpentanoic acid]",0.004
12,"CNC(=O)c1c(-c2ccc(C)cc2)oc2nc(N(CCCC(C#N)CC(=O)O)S(C)(=O)=O)c(C3CC3)cc12 (stereo not drawn) [Example 29.999995, 3-cyano-6-(N-(5-cyclopropyl-3-(methylcarbamoyl)-2-p-tolylfuro[2,3-b]pyridin-6-yl)methylsulfonamido) hexanoic acid]",0.003
13,"CNC(=O)c1c(-c2ccc(C)cc2)oc2nc(N(CCCC3(C(=O)O)COC3)S(C)(=O)=O)c(C3CC3)cc12 [Example 29.96, 3-(3-(N-(5-cyclopropyl-3-(methylcarbamoyl)-2-p-tolylfuro[2,3-b]pyridin-6-yl)methylsulfonamido)propyl) oxetane-3-carboxylic acid]",0.005

# The remaining lines, values ahead:
row,IC50 [µM],Compound
1,0.06,"C#Cc1cc2c(C(=O)NC)c(-c3ccc(F)cc3)oc2nc1N(C)S(C)(=O)=O [Example 7, 5-ethynyl-2-(4-fluorophenyl)-N-methyl-6-(N-methylmethylsulfonamido)furo[2,3-b]pyridine-3-carboxamide]"
2,0.041,"CCc1cc2c(C(=O)NC)c(-c3ccc(F)cc3)oc2nc1N(CCCCC(=O)N(C)C)S(C)(=O)=O [Example 22.992, 6-(N-(5-(dimethylamino)-5-oxopentyl)methylsulfonamido)-5-ethyl-2-(4-fluorophenyl)-N-methylfuro[2,3-b]pyridine-3-carboxamide]"
3,0.242,"CNC(=O)c1c(-c2ccc(F)cc2)oc2nc(N(CCN(C)S(C)(=O)=O)S(C)(=O)=O)c(I)cc12 [Example 23.996, 2-(4-fluorophenyl)-5-iodo-N-methyl-6-(N-(2-(N-methylmethylsulfonamido)ethyl)methylsulfonamido) furo[2,3-b]pyridine-3-carboxamide]"
4,0.155,"CCc1cc2c(C(=O)NC)c(-c3ccc(F)cc3)oc2nc1N(CCC1CCN(C(=O)OC(C)(C)C)CC1)S(C)(=O)=O [Example 21.995, tert-butyl 4-(2-(N-(5-ethyl-2-(4-fluorophenyl)-3-(methylcarbamoyl)furo[2,3-b]pyridin-6-yl)methylsulfonamido)ethyl)piperidine-1-carboxylate]"
5,0.058,"CCc1cc2c(C(=O)NC)c(-c3ccc(F)cc3)oc2nc1N(CCCN(C)S(C)(=O)=O)S(C)(=O)=O [Example 23.3, 5-ethyl-2-(4-fluorophenyl)-N-methyl-6-(N-(3-(N-methylmethylsulfonamido)propyl)methylsulfonamido) furo[2,3-b]pyridine-3-carboxamide]"
6,0.02,"CNC(=O)c1c(-c2ccc(C)cc2)oc2nc(N(CCC[C@H](C)C(=O)NCCCC(=O)O)S(C)(=O)=O)c(C3CC3)cc12 [Example 29.999991, (S)-4-(5-(N-(5-cyclopropyl-3-(methylcarbamoyl)-2-p-tolylfuro[2,3-b]pyridin-6-yl)methylsulfonamido)-2-methylpentanamido)butanoic acid]"
7,0.103,"C=CCCN(c1nc2oc(-c3ccc(F)cc3)c(C(=O)NC)c2cc1I)S(C)(=O)=O [Example 18.3, 6-(N-(but-3-enyl)methylsulfonamido)-2-(4-fluorophenyl)-5-iodo-N-methylfuro[2,3-b]pyridine-3-carboxamide]"
8,0.662,"C=C(c1cc2c(C(=O)NC)c(-c3ccc(F)cc3)oc2nc1N(C)S(C)(=O)=O)C(F)(F)F [Example 2.5, 2-(4-fluorophenyl)-N-methyl-6-(N-methylmethylsulfonamido)-5-(3,3,3-trifluoroprop-1-en-2-yl)furo[2,3-b]pyridine-3-carboxamide]"
9,0.57,"CCc1cc2c(C(=O)NC)c(-c3ccc(F)cc3)oc2nc1N(CCOc1ccccc1OC)S(C)(=O)=O [Example 21.91, 5-ethyl-2-(4-fluorophenyl)-6-(N-(2-(2-methoxyphenoxy)ethyl)methylsulfonamido)-N-methylfuro[2,3-b]pyridine-3-carboxamide]"
10,0.078,"C=Cc1cc2c(C(=O)NC)c(-c3ccc(F)cc3)oc2nc1N(CCCCC(=O)O)S(C)(=O)=O [Example 24.1, 5-(N-(2-(4-fluorophenyl)-3-(methylcarbamoyl)-5-vinylfuro[2,3-b]pyridin-6-yl)methylsulfonamido) pentanoic acid]"
11,0.044,"CCc1cc2c(C(=O)NC)c(-c3ccc(F)cc3)oc2nc1N(CCCS(=O)(=O)C(C)(C)C)S(C)(=O)=O [Example 23.93, 6-(N-(3-(tert-butylsulfonyl)propyl)methylsulfonamido)-5-ethyl-2-(4-fluorophenyl)-N-methylfuro[2,3-b]pyridine-3-carboxamide]"
12,0.093,CCc1cc2c(C(=O)NC)c(-c3ccc(F)cc3)oc2nc1N(CCCNS(=O)(=O)c1ccccc1)S(C)(=O)=O [23.6]
13,0.112,"CCc1cc2c(C(=O)NC)c(-c3ccc(F)cc3)oc2nc1N(CCCN1CCN(C(=O)OC(C)(C)C)CC1)S(C)(=O)=O [Example 21.999, tert-butyl 4-(3-(N-(5-ethyl-2-(4-fluorophenyl)-3-(methylcarbamoyl)furo[2,3-b]pyridin-6-yl)methylsulfonamido)propyl)piperazine-1-carboxylate]"
14,0.144,"CCc1cc2c(C(=O)NC)c(-c3ccc(F)cc3)oc2nc1N(CCCO)S(C)(=O)=O [Example 23.2, 5-ethyl-2-(4-fluorophenyl)-6-(N-(3-hydroxypropyl)methylsulfonamido)-N-methylfuro[2,3-b]pyridine-3-carboxamide]"
15,0.002,"CNC(=O)c1c(-c2ccc(C)cc2)oc2nc(N(CCCCCCCCCC(=O)O)S(C)(=O)=O)c(C3CC3)cc12 [Example 29.993, 10-(N-(5-cyclopropyl-3-(methylcarbamoyl)-2-p-tolylfuro[2,3-b]pyridin-6-yl)methylsulfonamido) decanoic acid]"
